Test results from patent US20230346889A9, “TREATMENT OF ACUTE HEART FAILURE” (AnaCardio R&D AB, priority 2019, published 2023).
“Also recorded” adds a separate entry of the source.

Tested on: patients with advanced CHF and reduced EF
Assay: Randomized double-blind placebo-controlled trial of intravenous acyl ghrelin: non-invasive hemodynamics (Innocor, Nexfin)
Assay type: in vivo
Source text: Between 17 Feb. 2013 and 19 May 2015 we conducted a prospective double-blind, placebo-controlled, parallel-group, single centre randomized clinical trial with a one-time treatment of intravenous acyl ghrelin or placebo.
Patients were pre-screened in the Karolinska University Hospital heart failure clinic (FIG. 1) and had symptoms and signs of advanced CHF (New York Heart Association [NYHA] class III-IV) and an EF of ≤40%.
Ghrelin is a 28 amino acid peptide with a molecular weight of 3,371 g/mol. Half-time in plasma is 24-30 minutes. Concentrations in normal humans has variably been reported at 100-300 pmol/L (300-900 ng/L) for total ghrelin. There is limited data on acyl ghrelin but we recently measured acyl ghrelin in 41 healthy non-obese adults: fasting: mean±SD: 118±14 ng/L, 5-95th percentile 27-328 ng/L; trough 60 minutes post 260 kcal mixed meal: 80±12 ng/L, 5-95th percentile 21-293 ng/L. Synthetic acylated (active) human ghrelin (brand name Clinalfa Ghrelin (human) Acetate, product number 4071265; Bachem, Hauptstrasse 144, 4416 Bubendorf, Switzerland—hereafter referred to as ghrelin, was purchased from Bachem (Bubendorf, Switzerland) under license from Daiichi Sankyo (Tokyo, Japan). For each patient and treatment, a stock solution was prepared consisting of multiple vials of powder ghrelin (100 μg ghrelin/vial together with phosphate buffer), each vial dissolved in 1 mL sterile water for infusion (B. Braun, Germany) and visually inspected to be a clear and colorless solution, prior to adding 0.001 g (0.02 ml of 50 g/L stock) human albumin (for concentration 0.001 g/mL=0.1%) to each vial and further mixed with normal saline (NaCl 9 mg/ml, B. Braun, Germany). The proportion of stock solution and saline were according to patient weight (Table 2), resulting in a total volume of 100 mL (to ensure the same volume infusion for all patients). The final intravenous infusion rate was 0.50 mL/min volume (total volume 60 mL), equivalent to 0.1 μg (30 pmol)/kg/min (total amount 12.0 μg/kg) of acyl ghrelin administered to all patients randomized to ghrelin. The infusion was given for 120 minutes and continued until all measurements at 120 minutes had been completed (thus delivering some additional ghrelin). The median total infusion duration was 171 minutes. Measurements were repeated 30 minutes after stopping infusion.
Patients were randomized in parallel by block randomization in groups of 4 using paper envelopes to ghrelin or placebo and the infusion was given by antecubital vein over 120 minutes. A dedicated study nurse prepared ghrelin and placebo for infusion and patients and all other investigators were blinded. Immediately prior to, during, and after the 120 minute infusion and also 30 minutes after stopping the infusion, blood samples were drawn and symptoms, signs, echocardiography, ECG, and non-invasive hemodynamics were assessed (FIG. 2). Patients were discharged to home and returned 2-5 days later for repeat measurements. Patients were followed prospectively for morbidity and mortality outcomes.
Non-invasive resting CO in was assessed in duplicate at each measurement using the Innocor® device (Innovision, Odense, Denmark). The Innocor is a non-invasive device that measures pulmonary blood flow using an inert gas rebreathing technique, and measures VO2 directly. It has been validated for CO and VO2 at rest and exercise (Gabrielsen et al., 2002; Stahlberg et al., 2009).
The Innocor® directly measures pulmonary blood flow, VO2 and SpO2. From these variables, shunt fraction, cardiac output, SVO2 and A-V O2 difference was then calculated using standard formulas. Beat-by-beat ECG, blood pressure and the first derivative of the pressure signal (+dP/dt) were measured using a Nexfin® device (described below). Fifteen minutes of continuous beat-by-beat Nexfin data were averaged at the time of Innocor measurements. Estimated systemic vascular resistance (eSVR) was subsequently calculated as mean blood pressure/cardiac output×80. […]

SMILES: CCCCCCCC(=O)OC[C@H](NC(=O)[C@H](CO)NC(=O)CN)C(=O)N[C@@H](Cc1ccccc1)C(=O)N[C@@H](CC(C)C)C(=O)N[C@@H](CO)C(=O)N1CCC[C@H]1C(=O)N[C@@H](CCC(=O)O)C(=O)N[C@@H](Cc1cnc[nH]1)C(=O)N[C@@H](CCC(N)=O)C(=O)N[C@@H](CCCNC(=N)N)C(=O)N[C@H](C(=O)N[C@@H](CCC(N)=O)C(=O)N[C@@H](CCC(N)=O)C(=O)N[C@@H](CCCNC(=N)N)C(=O)N[C@@H](CCCCN)C(=O)N[C@@H](CCC(=O)O)C(=O)N[C@@H](CO)C(=O)N[C@@H](CCCCN)C(=O)N[C@@H](CCCCN)C(=O)N1CCC[C@H]1C(=O)N1CCC[C@H]1C(=O)N[C@@H](C)C(=O)N[C@@H](CCCCN)C(=O)N[C@@H](CC(C)C)C(=O)N[C@@H](CCC(N)=O)C(=O)N1CCC[C@H]1C(=O)N[C@@H](CCCNC(=N)N)C(=O)O)C(C)C [Ghrelin]
- A-V O2-diff (2-5 day follow-up visit): 27.4 ± 10.0 %
- CO (2-5 day follow-up visit): 4.21 ± 1.27 L/min
- HR (2-5 day follow-up visit): 71.6 ± 10.8 bpm
- PBF (2-5 day follow-up visit): 3.58 ± 0.74 L/min
- SV (2-5 day follow-up visit): 59.9 ± 18.5 mL
- Shunt (2-5 day follow-up visit): 15.7 ± 16.7%
- SpO2 (2-5 day follow-up visit): 94.0 ± 3.9+ %
- SvO2 (2-5 day follow-up visit): 66.4 ± 18.4 %
- VO2 (2-5 day follow-up visit): 0.22 ± 0.06 L/min
- CO compared to placebo group (2-5 days follow-up): still a significant increase in CO
- A-V O2 diff (30 min after stop Infusion): 21.6 ± 12.1%
- CO (30 min after stop Infusion): 4.94 ± 1.70 L/min
- PBF (30 min after stop Infusion): 4.14 ± 0.97 L/min
- SV (30 min after stop Infusion): 74.31 ± 26.09 mL
- Shunt (30 min after stop Infusion): 12.6 ± 14.3%
- SpO2 (30 min after stop Infusion): 94.7 ± 3.9%
- SvO2 (30 min after stop Infusion): 73.3 ± 12.8%
- VO2 (30 min after stop Infusion): 0.19 ± 0.08 L/min
- dBP (30 min after stop Infusion): 58.9 ± 7.5 mmHg
- dP/dt (30 min after stop Infusion): 602 ± 252 mmHg/s
- mBP (30 min after stop Infusion): 75.5 ± 12.0 mmHg
- sBP (30 min after stop Infusion): 105.7 ± 20.5 mmHg
- A-V O2 diff (Baseline): 27.6 ± 14.3%
- CO (Baseline): 4.08 ± 1.15 L/min
- PBF (Baseline): 3.61 ± 0.70 L/min
- SV (Baseline): 59.10 ± 17.82 mL
- Shunt (Baseline): 9.9 ± 10.6%
- SpO2 (Baseline): 95.2 ± 3.4%
- SvO2 (Baseline): 67.9 ± 14.4%
- VO2 (Baseline): 0.20 ± 0.07 L/min
- dBP (Baseline): 58.6 ± 8.4 mmHg
- dP/dt (Baseline): 742 ± 267 mmHg/s
- mBP (Baseline): 74.9 ± 11.3 mmHg
- sBP (Baseline): 104.7 ± 18.4 mmHg
- A-V O2-diff (Baseline (Table 8)): 24.4 ± 7.6%
- CO (Baseline (Table 8)): 4.08 ± 1.15 L/min
- HR (Baseline (Table 8)): 69.6 ± 9.1 bpm
- PBF (Baseline (Table 8)): 3.61 ± 0.70 L/min
- SV (Baseline (Table 8)): 59.9 ± 19.0 mL
- Shunt (Baseline (Table 8)): 9.9 ± 10.6%
- SpO2 (Baseline (Table 8)): 95.2 ± 3.4%
- SvO2 (Baseline (Table 8)): 67.7 ± 14.3%
- VO2 (Baseline (Table 8)): 0.2 ± 0.07 L/min
- A-V O2 diff (Infusion + 60 min): 23.6 ± 12.9 %
- CO (Infusion + 60 min): 4.64 ± 1.31 L/min
- PBF (Infusion + 60 min): 3.76 ± 0.76 L/min
- SV (Infusion + 60 min): 69.64 ± 22.75 mL
- Shunt (Infusion + 60 min): 16.8 ± 11.8 %
- SpO2 (Infusion + 60 min): 93.5 ± 3.5 %
- SvO2 (Infusion + 60 min): 70.0 ± 13.8%
- VO2 (Infusion + 60 min): 0.19 ± 0.07 L/min
- dBP (Infusion + 60 min): 56.5 ± 8.7 mmHg
- dP/dt (Infusion + 60 min): 535 ± 213 mmHg/s
- mBP (Infusion + 60 min): 71.4 ± 10.2 mmHg
- sBP (Infusion + 60 min): 99.0 ± 17.6 mmHg
- A-V O2 diff (Infusion + 120 min): 20.9 ± 8.5 %
- CO (Infusion + 120 min): 5.23 ± 1.98 L/min
- PBF (Infusion + 120 min): 4.08 ± 0.90 L/min
- SV (Infusion + 120 min): 79.83 ± 30.30 mL
- Shunt (Infusion + 120 min): 18.0 ± 12.3 %
- SpO2 (Infusion + 120 min): 93.4 ± 3.6 %
- SvO2 (Infusion + 120 min): 71.7 ± 10.1%
- VO2 (Infusion + 120 min): 0.19 ± 0.08 L/min
- dBP (Infusion + 120 min): 56.1 ± 10.3 mmHg
- dP/dt (Infusion + 120 min): 531 ± 191 mmHg/s
- mBP (Infusion + 120 min): 70.9 ± 13.1 mmHg
- sBP (Infusion + 120 min): 99.0 ± 21.1 mmHg
- change in HR (between baseline and 120 minutes): fell slightly
- change in calculated SV (during and after infusion): increased with infusion and fell after stop of infusion
- change in systolic, diastolic and mean arterial blood pressure (during and after infusion): no changes or differences in changes; also recorded: no changes in blood pressure; also recorded: no effect
- change in CO (during and after infusion, primary outcome): increased with infusion and fell after stop of infusion
- change in oxygen consumption (VO2) (in vivo): no change
- change in pulmonary blood flow (in vivo): increased
- change in estimated SVR (with infusion): fell and decrease
